{
  "source": "patent EP1310250A1",
  "about": "“Use of the compound 2-methoxyphenyl-1-methyl-5P-methylbenzoyl-pyrrol-2-acetamido acetate for the production of an antiinflammatory drug with prevention of gastric hypersecretion and renal impairment” (MEDOSAN Ricerca S.r.l., priority 1997, dated 1999)",
  "key": {"post-operative pain": {"tested_on": "post-operative pain", "test": "Clinical trials: analgesic properties in post-operative pain", "assay_type": "in vivo, man", "design": "key to Antiphlogistic activity evaluation: excellent ^++++; good ^+++; poor ^++", "procedure": "As reported in Table 14, the analgesic properties of amtolmetin guacyl were tested in postoperative pain with good results. […] The peak effect is obtained only after 2 hours, and it is maintained for 6 hours."}, "Adjuvant arthritis": {"tested_on": "Adjuvant arthritis", "test": "Adjuvant arthritis: joint inflammation and patellar bone erosion", "assay_type": "in vivo, rats", "settings": "patellar bone mass; MED 15 25, 50, 100mg/kg, piroxicam 3mg/kg", "procedure": "The drugs were administered daily by oral gavage for 4 days (day 0-3); piroxicam and MED 15 were dissolved in 5% Gum arabic + 0.01% Tween 80, and administered in a volume of 0.5ml. Piroxicam was administered as 3mg/kg and MED 15 was administered as 25, 50 and 100mg/kg doses. Table 8 bis illustrating dosage regimes. L=left stifle joint, R=Right stifle joint.\nUnder halothane anaesthesia, rats received 200µg of heat-killed finely ground Mycobactyerium tubercolosis in 25µl (80mg/10ml sterile saline) injected intra-articulary into the left stifle joint. The contralateral joint received 25µl 0.9% sterile saline. Control animals received 25µl of 0.9% sterile saline in both knees. SGE 50µl microsyringes with a volume lock calibrated at 25µl were used with 30G stainless steel needles. Solutions were prepared sterile, and aseptic technique was used throughout, with sterilisation of syringes between groups.\nThe rats were killed by carbon dioxide suffocation. The body weight was noted and the skin overlying the stifle joints was divided and the joint diameters assessed in mm using Mitutoyo vernier callipers (530-312, 0.02mm).\nThe patellae were dissected, weighed (Sartorius, 0.01mg) and then immersed in 1ml digestion buffer (see below) to remove soft tissue.\nDigestive buffer was prepared fresh to the following formula; disodium hydrogen orthophosphate 20mM, EDTA 1mM and diothiothreitol at 2mM. […]"}, "[1]": {"tested_on": "carrageenin-induced paw oedema", "test": "Determination of ID50, carrageenin-induced paw oedema", "assay_type": "in vivo, rat", "settings": "five times the oral ID50 for oedema inhibition, 2 h after carrageenin", "procedure": "ID50, relative to the products under examination (considered in table 1), has been evaluated using the anti-inflammatory response to carrageenin-induced paw oedema (according to Wong et al, J Pharmacol Exp, 1973:1855; pages 127-138). The products, suspended in 1% CMC, were administered orally in a total volume of 5 ml/rat. 1 h later, 0.1 ml of 1% carrageenin sterile solution was injected into the hind subplantar aponeurosis. Volume of the paw was measured immediately prior to injection of the phlogogen and 2 h thereafter, by means of a plethysmograph. The percentage of inhibition of oedema was calculated as follows: 1 - ΔV treated/ΔV control x 100 [formula] where ΔV = final V - initial V."}, "[2]": {"tested_on": "isolated, perfused, immature rat stomach", "test": "Antisecretive activity in vitro, isolated perfused immature rat stomach", "settings": "for Δacid: mean±S.E.", "source_text": "Male Wistar rats, 250±10 g b.w. (Charles River, Calco, Como, Italy), quarantined for five days prior to the beginning of the trial and divided into groups of 3 animals per cage, were used for determination of gastric lesions and of ID50 determination. Immature male Wistar rats, 30-45 g b.w. (Harlan Nossan, Milano) were used for the determination of the antisecretory effect on isolated rat stomach. The guinea-pigs used were the Dunkin Hartley guinea-pigs (Harlan Nossan, Milano, Italy).\nAt the beginning, the isolated, perfused, immature rat stomach, treated externally with the study product, was used. We preferred to use the isolated stomach in toto rather than strips (B.R. No. 18, 19 and 20) in order not to exclude a section of the stomach (the antrum), unimportant for acid secretion but very important for the secretion of bicarbonates and bioactive peptides (b.r. No. 21, 22). The results were encouraging, since amtolmetin guacyl inhibited acid production stimulated by the three classic agonists (histamine, acetilcholine and gastrin) both using varying doses of agonist or varying doses of amtolmetin guacyl (Table 5).\nThe results are expressed as mean±S.E."}, "H2 receptors": {"molecular_target": "T1, H2 receptors (Cavia porcellus, UniProt P47747)", "T1 construct": "an organ in which only H2 receptors were present (guinea-pig atrium); from tissue; host or cells: guinea-pig atrium (isolated organ)", "T1 sequence (P47747 whole entry)": "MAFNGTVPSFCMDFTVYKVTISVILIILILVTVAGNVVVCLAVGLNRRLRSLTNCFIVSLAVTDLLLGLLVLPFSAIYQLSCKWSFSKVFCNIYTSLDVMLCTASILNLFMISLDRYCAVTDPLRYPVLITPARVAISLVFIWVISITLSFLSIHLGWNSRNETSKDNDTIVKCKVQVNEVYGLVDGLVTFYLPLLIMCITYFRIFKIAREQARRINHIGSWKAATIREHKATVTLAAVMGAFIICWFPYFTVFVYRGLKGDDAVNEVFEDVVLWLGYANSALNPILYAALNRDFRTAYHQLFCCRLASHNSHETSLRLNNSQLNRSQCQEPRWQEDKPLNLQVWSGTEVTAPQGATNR", "test": "Effect on H2 receptors of isolated atrium, histamine stimulation", "settings": "guinea-pig atrium, stimulation by histamine (fig. 5)", "source_text": "On the basis of the above series of observations, we decided to study the pharmacological behaviour of a number of widely used NSAIDs (including amtolmetin guacyl) towards the gastric mucosa in the rat, as previously described. […] The first hypothesis was that we were deling with an anti-H2 drug, given the fact that its potency could be compared with that of cimetidine."}, "[3]": {"tested_on": "CGRP (calcitonin gene related peptide)", "test": "Peptone-stimulated gastric acid secretion after treatment with CGRP8-37", "assay_type": "in vivo, rat", "settings": "peptone-stimulated gastric acid secretion (fig. 14)"}, "basal acid secretion": {"tested_on": "basal acid secretion", "test": "Basal acid secretion", "settings": "amtolmetin guacyl per se"}, "gastric lesions": {"tested_on": "gastric lesions", "test": "Clinics with before/after endoscopies", "assay_type": "in vivo, man", "settings": "especially when administered on an empty stomach"}, "[4]": {"settings": "agonist Acetylcholine 10^-3 M, antagonist 10^-4 M"}, "[5]": {"settings": "agonist Gastrin 6x10^-7 M, antagonist 10^-4 M"}, "[6]": {"settings": "agonist Histamine 10^-3 M, antagonist 10^-4 M"}, "[7]": {"settings": "agonist Histamine 10^-4 M, antagonist 10^-4 M"}, "[8]": {"settings": "agonist Histamine 10^-4 M, antagonist 10^-5 M"}},
  "data": [
    {"smiles": "COc1ccccc1OC(=O)CNC(=O)Cc1ccc(C(=O)c2ccc(C)cc2)n1C", "note": "[amtolmetin guacyl, 2-methoxyphenyl-1-methyl-5p-methylbenzoylpyrrol-2-acetamido acetate]", "values": [
      {"measurement": "Antiphlogistic activity evaluation", "setting": "post-operative pain", "value": "^++++"},
      {"measurement": "time for which the effect is maintained", "setting": "post-operative pain", "value": 6, "unit": "h"},
      {"measurement": "Duration", "setting": "post-operative pain; 1200mg, 100 patients", "value": 360, "unit": "min"},
      {"measurement": "Latency", "setting": "post-operative pain; 1200mg, 100 patients", "value": 30, "unit": "min"},
      {"measurement": "Max. time effect", "setting": "post-operative pain; 1200mg, 100 patients", "value": 180, "unit": "min"},
      {"measurement": "time at which the antalgic effect is already evaluable", "setting": "post-operative pain; following administration", "value": "30 '"},
      {"measurement": "protection against bone loss", "setting": "Adjuvant arthritis", "value": "dose dependent protective effect"},
      {"measurement": "Ratio to rat dosage (mg/kg) (ID50 mg/kg x5)", "setting": "[1]", "value": 100, "unit": "mg/kg"},
      {"measurement": "% inhib.", "setting": "[2]; [4]", "value": 21.5, "unit": "%"},
      {"measurement": "Δacid", "setting": "[2]; [4]", "value": "71.2 ± 5.4", "unit": "nmol/min"},
      {"measurement": "% inhib.", "setting": "[2]; [5]", "value": 52.1, "unit": "%"},
      {"measurement": "Δacid", "setting": "[2]; [5]", "value": "30.7 ± 3.7", "unit": "nmol/min"},
      {"measurement": "% inhib.", "setting": "[2]; [6]", "value": 57.7, "unit": "%"},
      {"measurement": "Δacid", "setting": "[2]; [6]", "value": "17.9 ± 2.1", "unit": "nmol/min"},
      {"measurement": "% inhib.", "setting": "[2]; [7]", "value": 62.6, "unit": "%"},
      {"measurement": "Δacid", "setting": "[2]; [7]", "value": "19.2 ± 5.4", "unit": "nmol/min"},
      {"measurement": "% inhib.", "setting": "[2]; [8]", "value": 68.7, "unit": "%"},
      {"measurement": "Δacid", "setting": "[2]; [8]", "value": "16.1 ± 5.4", "unit": "nmol/min"},
      {"measurement": "interference with the H2 receptors", "setting": "H2 receptors", "value": "did not interfere with the H2 receptors"},
      {"measurement": "effect of the CGRP antagonist CGRP8-37 on the activity on gastric secretion", "setting": "[3]", "value": "blockage of the amtolmetin guacyl - related activity on gastric secretion"},
      {"measurement": "effect on basal acid secretion", "setting": "basal acid secretion", "value": "fails to modify basal acid secretion"},
      {"measurement": "induction of gastric lesions", "setting": "gastric lesions", "value": "not to induce gastric lesions"}
    ]}
  ]
}
